Laboratory results taken from US12673019B2, “Skin care composition” (Conopco, Inc., priority 2021, dated 2026).

Tested on: interleukin (IL)-6
Experiment: Human immune cell line THP-1 in vitro assay: IL-6 in supernatant of LPS-treated differentiated THP1-XBlue cells (ELISA)
Type: cell-based
Settings: differentiated THP1-XBlue cells co-treated with E. coli LPS and composition, 24 hours; percentage to LPS-treated cells = 100%; three repeats
Description: Human Immune Cell Line THP-1 In Vitro Assay The following procedure was used to determine the anti-inflammation efficacy: THP1-XBlue™ (Cat No. thpx-sp, InvivoGen, San Diego, CA) cells were cultured as suspension in RPMI 1640 medium supplemented with 10% fetal bovine serum (FBS), penicillin (10 U/mL)-streptomycin (10 μg/mL) (Cat No. 15140122, Invitrogen, Carlsbad, CA). Cells were differentiated in 24-well plates at the density of 5×10^5 cells/well with 100 nM phorbol-12-myristate-13-acetate for 72 hours. Cells were then co-treated with pure E. coli lipopolysaccharides (LPS, Cat No. L2630, Sigma-Aldrich) and various compositions in Table 1. […] Expression of IL-6 was calculated as the percentage to LPS-treated cells which was designated as 100%. P value was analysed by Student's t-test comparing combination groups and individual compound groups (expression of IL-6, three repeats for each group).

With `CCCCCCC(O)CCCCCCCCCCC(=O)O` (stereo not shown) [B, 12-hydroxystearic acid] the “Expression of IL-6 (%)” value was 84.4%.
